Results published in US8722683B2, “Benzodioxole piperazine compounds” (Hoffmann LA-Roche Inc., priority 2011, dated 2014).
Like-named read-outs stand apart in the source and are kept apart here.

How the values were obtained:
D2 receptor = D2 receptor (Homo sapiens (Human), UniProt P14416); experiment: Radioligand binding ([3H]-spiperone) to cloned D2 receptor expressed in HEK-293 EBNA cells; conditions: HEK293 EBNA membranes, 0.7 nM [3H]-spiperone
D3 receptor = D3 receptor (Homo sapiens (Human), UniProt P35462); experiment: Radioligand binding ([3H]-spiperone) to cloned D3 receptor expressed in HEK-293 EBNA cells; conditions: HEK293 EBNA membranes, 0.5 nM [3H]-spiperone
5-HT2A receptor = 5-HT2A receptor (Homo sapiens (Human), UniProt P28223); experiment: Radioligand binding ([3H]-ketanserin) to cloned 5-HT2A receptor expressed in HEK-293 EBNA cells
Method: HEK293 EBNA cells were transiently transfected with expression plasmids encoding for the human D2 or D3 or for the human 5-HT2A receptor, respectively. The cells were harvested 48 h post-transfection, washed three times with cold PBS and stored at −80° C. prior to use. The pellet was suspended in cold 50 mM Tris-HCl buffer containing 10 mM EDTA (pH 7.4) and was homogenized with a Polytron (Kinematica AG, Basel, Switzerland) for 20-30 sec at 12.000 rpm. After centrifugation at 48.000×g for 30 min at 4° C., the pellet was resuspended in cold 10 mM Tris-HCl buffer containing 0.1 mM EDTA (pH 7.4), homogenized, and centrifuged as above. This pellet was further resuspended in a smaller volume of ice cold 10 mM Tris-HCl buffer containing 0.1 mM EDTA (pH 7.4) and homogenized with a Polytron for 20-30 sec at 12.000 rpm. The protein content of this homogenate was determined with the Bio-Rad (Bradford) Protein Assay (Biorad Laboratories GmbH, München, Germany) according to the instructions of the manufacturer using gamma globulin as the standard. This homogenate was stored at −80° C. in aliquots and thawed immediately prior to use.
Radioligand Binding Assay
Aliquots of membrane preparations were thawed at RT, resupended in assay buffer (D2, D3: 50 mM Tris-HCl, 120 mM NaCl, 5 mM MgCl2, 1 mM EDTA, 5 mM KCl, 1.5 mM CaCl2, pH=7.4; 5-HT2A: 50 mM Tris-HCl, 10 mM MgCl2, 1 mM EGTA, pH=7.4), homogenized with a Polytron for 20-30 sec at 12.000 rpm and adjusted to a final concentration of approximately 7.5 μg protein/well (D2, D3) and 15 μg protein/well (5-HT2A), respectively.
The binding affinity (Ki) of the compounds was determined using radioligand binding. […] The nonspecific binding was determined with equally composed reaction mixtures in the presence of 10 μM unlabelled spiperone. Per well 45 μl of Microscint 40 (Perkin Elmer, Schwerzenbach, Switzerland) was added, plates for sealed, shaken for 20 min and counted for 3 min on a Topcount Microplate Scintillation Counter (Canberra Packard SA, Zürich, Switzerland) with quenching correction.
The CPM value for each duplicate of a concentration of competing compound was averaged (y1), then the % specific binding was calculated according to the equation (((y1−non-specific)/(total binding−non-specific))×100). Graphs were plotted with the % specific binding using XLfit, a curve fitting program that iteratively plots the data using Levenberg-Marquardt algorithm. The single site competition analysis equation used was y=A+((B−A)/(1+((x/C)D))), where y is the % specific binding, A is the minimum y, B is the maximum y, C is the IC50, x is the log 10 of the concentration of the competing compound and D is the slope of the curve (the Hill Coefficient). […] The affinity constant (Ki) was calculated using the Cheng-Prusoff equation Ki=(IC50/1+([L]/Kd), where [L] is the concentration of radioligand and Kd is the dissociation constant of the radioligand at the receptor as determined by the saturation isotherm.

Chain of 5-HT2A receptor (P28223 whole entry): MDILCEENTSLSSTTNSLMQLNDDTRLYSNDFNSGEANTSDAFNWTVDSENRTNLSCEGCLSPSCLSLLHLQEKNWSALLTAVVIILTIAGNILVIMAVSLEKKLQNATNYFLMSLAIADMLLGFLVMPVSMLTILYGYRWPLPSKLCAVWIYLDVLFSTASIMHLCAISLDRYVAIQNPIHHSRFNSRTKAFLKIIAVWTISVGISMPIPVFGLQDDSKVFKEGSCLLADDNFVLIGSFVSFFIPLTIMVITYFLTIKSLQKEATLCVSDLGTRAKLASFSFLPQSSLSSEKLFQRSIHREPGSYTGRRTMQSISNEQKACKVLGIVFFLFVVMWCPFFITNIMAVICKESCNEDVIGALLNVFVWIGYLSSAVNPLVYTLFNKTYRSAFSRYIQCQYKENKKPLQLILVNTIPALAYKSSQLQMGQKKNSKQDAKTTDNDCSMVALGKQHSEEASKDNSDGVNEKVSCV
Chain of D2 receptor (P14416 whole entry): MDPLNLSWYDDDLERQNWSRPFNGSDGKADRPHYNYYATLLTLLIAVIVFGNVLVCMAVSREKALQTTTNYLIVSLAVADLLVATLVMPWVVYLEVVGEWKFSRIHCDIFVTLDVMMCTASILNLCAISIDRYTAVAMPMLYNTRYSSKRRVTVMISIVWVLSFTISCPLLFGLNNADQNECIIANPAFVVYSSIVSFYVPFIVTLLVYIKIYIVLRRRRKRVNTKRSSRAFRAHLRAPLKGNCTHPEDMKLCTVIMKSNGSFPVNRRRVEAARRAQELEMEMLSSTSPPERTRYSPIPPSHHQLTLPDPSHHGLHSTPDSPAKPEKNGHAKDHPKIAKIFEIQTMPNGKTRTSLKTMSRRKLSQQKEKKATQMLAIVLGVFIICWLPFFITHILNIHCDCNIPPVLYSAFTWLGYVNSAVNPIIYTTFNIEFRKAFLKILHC
Chain of D3 receptor (P35462 whole entry): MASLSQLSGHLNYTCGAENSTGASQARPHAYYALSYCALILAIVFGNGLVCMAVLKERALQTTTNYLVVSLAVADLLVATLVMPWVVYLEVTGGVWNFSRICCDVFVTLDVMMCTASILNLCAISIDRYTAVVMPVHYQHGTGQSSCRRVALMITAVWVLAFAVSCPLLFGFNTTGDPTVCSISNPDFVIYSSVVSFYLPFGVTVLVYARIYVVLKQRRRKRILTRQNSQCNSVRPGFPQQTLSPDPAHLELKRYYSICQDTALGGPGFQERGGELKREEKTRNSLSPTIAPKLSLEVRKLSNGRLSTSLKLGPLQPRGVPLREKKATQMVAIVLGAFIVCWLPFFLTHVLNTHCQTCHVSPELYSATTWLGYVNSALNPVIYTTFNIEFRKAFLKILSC

| Structure (SMILES) | melting point | Ki (D2 receptor) | Ki (D3 receptor) | Ki (5-HT2A receptor) | Ki (5-HT2A receptor; human 5-HT2A receptor, HEK293 EBNA membranes, 1.1 nM [3H]-ketanserin) |
| --- | --- | --- | --- | --- | --- |
| O=C(CC1COC1)N[C@H]1CC[C@H](CCN2CCN(c3cccc4c3OCO4)CC2)CC1 [Example 22, Trans-N-{4-[2-(4-Benzo[1,3]dioxol-4-yl-piperazin-1-yl)-ethyl]-cyclohexyl}-2-oxetan-3-yl-acetamide] | 190 °C | 106 nM | 2.06 nM | – | – |
| CC(C)[C@@H](O)C(=O)N[C@H]1CC[C@H](CCN2CCN(c3cccc4c3OCO4)CC2)CC1 [Example 39, (R)-Trans-N-{4-[2-(4-Benzo[1,3]dioxol-4-yl-piperazin-1-yl)-ethyl]-cyclohexyl}-2-hydroxy-3-methyl-butyramide] | – | 90.2 nM | 5.77 nM | 34.7 nM | – |
| CC(C)[C@H](O)C(=O)N[C@H]1CC[C@H](CCN2CCN(c3cccc4c3OCO4)CC2)CC1 [Example 40, (S)-Trans-N-{4-[2-(4-Benzo[1,3]dioxol-4-yl-piperazin-1-yl)-ethyl]-cyclohexyl}-2-hydroxy-3-methyl-butyramide] | – | 73.4 nM | 14.8 nM | 22.5 nM | – |
| O=C(N[C@H]1CC[C@H](CCN2CCN(c3cccc4c3OCO4)CC2)CC1)C1CCOCC1 [Example 43, Tetrahydro-pyran-4-carboxylic acid-trans-N-{4-[2-(4-benzo[1,3]dioxol-4-yl-piperazin-1-yl)-ethyl]-cyclohexyl}-amide] | – | 219 nM | 4.48 nM | 7.74 nM | – |
| O=C(N[C@H]1CC[C@H](CCN2CCN(c3cccc4c3OCO4)CC2)CC1)c1ccc2c(c1)OCCO2 [Example 49, 2,3-Dihydro-benzo[1,4]dioxine-6-carboxylic acid-trans-N-{4-[2-(4-benzo[1,3]dioxol-4-yl-piperazin-1-yl)-ethyl]-cyclohexyl}-amide] | – | 4820 nM | 4.59 nM | 10.7 nM | – |
| O=C(N[C@H]1CC[C@H](CCN2CCN(c3cccc4c3OCO4)CC2)CC1)C1CCS(=O)(=O)C1 (stereo partly drawn) [Example 52, 1,1-Dioxo-tetrahydro-1,6-thiophene-3-carboxylic acid-trans-N-{4-[2-(4-benzo[1,3]dioxol-4-yl-piperazin-1-yl)-ethyl]-cyclohexyl}-amide] | – | 59 nM | 3.56 nM | – | 4.3 nM |
| CN1CCC(C(=O)N[C@H]2CC[C@H](CCN3CCN(c4cccc5c4OCO5)CC3)CC2)CC1 [Example 57, 1-Methyl-piperidine-4-carboxylic acid-trans-N-{4-[2-(4-benzo[1,3]dioxol-4-yl-piperazin-1-yl)-ethyl]-cyclohexyl}-amide] | – | 62.9 nM | 24.9 nM | 15.3 nM | – |
| CC1(C(=O)N[C@H]2CC[C@H](CCN3CCN(c4cccc5c4OCO5)CC3)CC2)COC1 [Example 58, 3-Methyl-oxetane-3-carboxylic acid-trans-N-{4-[2-(4-benzo[1,3]dioxol-4-yl-piperazin-1-yl)-ethyl]-cyclohexyl}-amide] | – | 81.1 nM | 6.82 nM | 15.6 nM | – |
| CN1CCN(CC(=O)N[C@H]2CC[C@H](CCN3CCN(c4cccc5c4OCO5)CC3)CC2)CC1 [Example 61, Trans-N-{4-[2-(4-Benzo[1,3]dioxol-4-yl-piperazin-1-yl)-ethyl]-cyclohexyl}-2-(4-methyl-piperazin-1-yl)-acetamide] | – | 38.1 nM | 4.63 nM | 16 nM | – |
| COC1(C(=O)N[C@H]2CC[C@H](CCN3CCN(c4cccc5c4OCO5)CC3)CC2)CC1 [Example 62, 1-Methoxy-cyclopropanecarboxylic acid-trans-N-{4-[2-(4-benzo[1,3]dioxol-4-yl-piperazin-1-yl)-ethyl]-cyclohexyl}-amide] | – | 86.5 nM | 14.3 nM | 6.27 nM | – |
| CN(C)S(=O)(=O)N[C@H]1CC[C@H](CCN2CCN(c3cccc4c3OCO4)CC2)CC1 [Example 76, N-trans-{4-[2-(4-benzo[1,3]dioxol-4-yl-piperazin-1-yl)-ethyl]-cyclohexyl}-N,N-dimethyl-sulfamide] | – | 128 nM | 3.36 nM | 21.6 nM | – |
